# Measured values published in patent publication US20230263742A1, “A LIPID” (Stemirna Therapeutics Co., Ltd., priority 2021, published 2023).
# What was measured:
# [1] = Particle size, PDI and zeta potential by dynamic light scattering; type: physicochemical; details: for PDI / Zeta potential: Luc mRNA-LNP 50:10:38.5:1.5; for Size: Luc mRNA-LNP, lipid:phospholipid:cholesterol:PEG-DMG 50:10:38.5:1.5
# Description: A Zetasizer Nano ZS (Malvern Instruments Ltd, Malvern, Worcestershire, UK) can be used to determine the particle size, the polydispersity index (PDI) and the zeta (ζ) potential of the nanoparticle compositions in 1×PBS in determining particle size and 15 mM PBS in determining zeta (ζ) potential.
# The evaluation method of particle size and zeta potential: 50 μL LNP sample was diluted with 950 μL purified water to obtain the diluted LNP sample. The sample was placed in a dynamic light scattering laser particle size analyzer (Malvern, ZS-90) for testing.
# [2] = Encapsulation efficiency (RIBOGREEN kit); type: physicochemical; details: Luc mRNA-LNP 50:10:38.5:1.5
# Description: For nanoparticle compositions including an RNA, a QUANT-IT™ RIBOGREENR®RNA assay (Invitrogen Corporation Carlsbad, Calif.) can be used to evaluate the encapsulation of an RNA by the nanoparticle composition. The samples were diluted to a concentration of approximately 5 μg/mL in a TE buffer solution (10 mM Tris-HCl, 1 mM EDTA, pH 7.5). 50 μL of the diluted samples are transferred to a polystyrene 96 well plate and either 50 μL of TE buffer or 50 μL of a 2% Triton X-100 solution is added to the wells. The plate is incubated at a temperature of 37° C. for 15 minutes. The RIBOGREENR reagent is diluted 1:100 in TE buffer and 100 μL of this solution is added to each well. The fluorescence intensity can be measured using a fluorescence plate reader (Wallac Victor 1420 Multilablel Counter; Perkin Elmer, Waltham, Mass.) at an excitation wavelength of, for example, about 480 nm and an emission wavelength of, for example, about 520 nm. The fluorescence values of the reagent blank are subtracted from that of each of the samples and the percentage of free RNA is determined by dividing the fluorescence intensity of the intact sample (without addition of Triton X-100) by the fluorescence value of the disrupted sample (caused by the addition of Triton X-100).
# Encapsulation efficiency detection method: LNP content and encapsulation efficiency detection were carried out according to the RIBOGREEN kit.
PDI ([1]; phospholipid DAPC),Zeta potential ([1]; phospholipid DAPC) [mV],Size ([1]; phospholipid DAPC) [nm],PDI ([1]; phospholipid DMPE),Zeta potential ([1]; phospholipid DMPE) [mV],Size ([1]; phospholipid DMPE) [nm],PDI ([1]; phospholipid DOPE),Zeta potential ([1]; phospholipid DOPE) [mV],Size ([1]; phospholipid DOPE) [nm],PDI ([1]; phospholipid DPPC),Zeta potential ([1]; phospholipid DPPC) [mV],Size ([1]; phospholipid DPPC) [nm],PDI ([1]; phospholipid DPPE),Zeta potential ([1]; phospholipid DPPE) [mV],Size ([1]; phospholipid DPPE) [nm],PDI ([1]; phospholipid DSPC),Zeta potential ([1]; phospholipid DSPC) [mV],Size ([1]; phospholipid DSPC) [nm],PDI ([1]; phospholipid DSPE),Zeta potential ([1]; phospholipid DSPE) [mV],Compound,other results
0.28 ± 0.03,−7.18 ± 0.42,93.8 ± 1.6,0.29 ± 0.01,−1.59 ± 0.19,102.8 ± 2.3,0.10 ± 0.04,−4.31 ± 1.36,111.3 ± 2.0,0.26 ± 0.06,−2.32 ± 0.32,97.3 ± 2.6,0.54 ± 0.41,−0.80 ± 0.58,265.7 ± 306.1,0.37 ± 0.02,−1.65 ± 0.58,108.7 ± 2.5,0.21 ± 0.01,−11.97 ± 1.19,CCCCCCCCC(CCCCCCCC)OC(=O)CCCCCCCN(CCO)CCCCCCCC(=O)OCCc1ccc(CCCC)cc1 [SW-II-118],"Size ([1]; phospholipid DSPE): 103.4 ± 2.0 nm; Encapsulation Efficiency (EE, %) ([2]; phospholipid DAPC): 86.4%; Encapsulation Efficiency (EE, %) ([2]; phospholipid DMPE): 86.2%; Encapsulation Efficiency (EE, %) ([2]; phospholipid DOPE): 87.5%; Encapsulation Efficiency (EE, %) ([2]; phospholipid DPPC): 83.4%; Encapsulation Efficiency (EE, %) ([2]; phospholipid DSPC): 76.0%; Encapsulation Efficiency (EE, %) ([2]; phospholipid DSPE): 81.0%"
0.28 ± 0.02,−4.82 ± 0.28,97.1 ± 1.6,0.20 ± 0.02,−6.08 ± 0.43,92.7 ± 1.1,0.13 ± 0.02,2.09 ± 0.28,142.9 ± 1.9,0.22 ± 0.01,−3.23 ± 2.95,92.97 ± 0.7,0.15 ± 0.04,−5.04 ± 1.16,115.3 ± 3.7,0.20 ± 0.01,0.61 ± 0.55,88.7 ± 1.1,0.22 ± 0.02,−5.15 ± 2.37,CCCCCCCCC(CCCCCCCC)OC(=O)CCCCCCCN(CCO)CCCCCCCC(=O)OCCc1ccc(CCCCCC)cc1 [SW-II-120],"Size ([1]; phospholipid DSPE): 106.5 ± 5.5 nm; Encapsulation Efficiency (EE, %) ([2]; phospholipid DAPC): 84.3%; Encapsulation Efficiency (EE, %) ([2]; phospholipid DMPE): 86.2%; Encapsulation Efficiency (EE, %) ([2]; phospholipid DOPE): 90.9%; Encapsulation Efficiency (EE, %) ([2]; phospholipid DPPC): 84.9%; Encapsulation Efficiency (EE, %) ([2]; phospholipid DPPE): 64.7%; Encapsulation Efficiency (EE, %) ([2]; phospholipid DSPC): 85.3%"
0.27 ± 0.01,−2.21 ± 0.53,96.3 ± 2.2,0.20 ± 0.03,0.01 ± 0.35,139.8 ± 1.1,0.17 ± 0.03,5.06 ± 0.15,159.87 ± 3.7,0.22 ± 0.02,−1.23 ± 1.43,98.7 ± 1.7,0.17 ± 0.03,−0.29 ± 0.31,98.4 ± 2.7,0.22 ± 0.03,−1.18 ± 1.18,98.5 ± 1.5,0.17 ± 0.03,−9.60 ± 2.10,CCCCCCCCC(CCCCCCCC)OC(=O)CCCCCCCN(CCO)CCCCCCCC(=O)OCCc1ccc(CCCCCCC)cc1 [SW-II-121],"Size ([1]; phospholipid DSPE): 116.3 ± 0.2 nm; Encapsulation Efficiency (EE, %) ([2]; phospholipid DAPC): 76.6%; Encapsulation Efficiency (EE, %) ([2]; phospholipid DMPE): 70.9%; Encapsulation Efficiency (EE, %) ([2]; phospholipid DOPE): 81.5%; Encapsulation Efficiency (EE, %) ([2]; phospholipid DPPC): 86.7%; Encapsulation Efficiency (EE, %) ([2]; phospholipid DPPE): 84.0%; Encapsulation Efficiency (EE, %) ([2]; phospholipid DSPC): 86.0%; Encapsulation Efficiency (EE, %) ([2]; phospholipid DSPE): 68.5%"
